Experimental data reported in patent US20230263822A1, “MODULATION OF FACTOR 11 EXPRESSION” (Ionis Pharmaceuticals, Inc., priority 2008, published 2023).
Strand notation (5' to 3'): a small letter for the sugar, then the base; units joined by * are phosphorothioate-linked, units joined directly phosphodiester-linked; [ ] holds rarer units or linkages, { } end groups; capitals alone tell only the bases. e = 2'-O-(2-methoxyethyl) (MOE); [5mC] = 5-methylcytosine; d = 2'-deoxy (DNA)

What was measured:
fibrinogen = assay: Fibrinogen assay (Example 45); format: in vivo, cynomolgus monkeys; conditions: plasma
Protocol: (§1) Groups, each consisting of two male and three female monkeys, were injected subcutaneously with ISIS 416838, ISIS 416850, ISIS 416858, ISIS 416864, or ISIS 417002 in escalating doses. Antisense oligonucleotide was administered to the monkeys at 5 mg/kg three times per a week for week 1; 5 mg/kg twice per week for weeks 2 and 3; 10 mg/kg three times per week for week 4; 10 mg/kg twice per week for weeks 5 and 6; 25 mg/kg three times per week for week 7; and 25 mg/kg twice per week for weeks 8, 9, 10, 11, and 12. One control group, consisting of two male and three female monkeys, was injected subcutaneously with PBS according to the same dosing regimen. An additional experimental group, consisting of two male and three female monkeys, was injected subcutaneously with ISIS 416850 in a chronic, lower dose regimen. Antisense oligonucleotide was administered to the monkeys at 5 mg/kg three times per week for week 1; 5 mg/kg twice per week for week 2 and 3; 10 mg/kg three times per week for week 4; and 10 mg/kg twice per week for weeks 5 to 12. Body weights were measured weekly. Blood samples were collected 14 days and 5 days before the start of treatment and subsequently once per week for Factor 11 protein activity analysis in plasma, fibrinogen measurement, PT and aPTT measurements, bleeding times, and measurement of various hematologic factors. On day 85, the monkeys were euthanized by exsanguination while under deep anesthesia, and organs harvested for further analysis.
Nine parts of fresh monkey plasma was collected into one part of trisodium citrate. The samples were evaluated of fibrinogen content using an ACL 9000 coagulation instrument (Instrumentation Laboratory, Italy). The ISIS oligonucleotide, ISIS 416850, given with the chronic dose regimen is distinguished from the other oligonucleotides with an asterisk (*).

[1] = Tolerability in CD1 mice: body weight and organ weight (Example 41); conditions: 50 mg/kg s.c. twice per week for 6 weeks; for body weight: increase in grams over the PBS control weight taken before the start of treatment; for Kidney weight / Liver weight / Spleen weight: percentage of the body weight
blood coagulation = assay: PT and aPTT assay in cynomolgus monkeys (Example 45); format: in vivo; conditions: platelet poor plasma
Protocol: as §1
Blood samples were collected in tubes containing sodium citrate. PT and aPTT were determined in duplicate with an ACL 9000 coagulation instrument (Instrumentation Laboratory, Italy). The results were interpolated on a standard curve of serial dilutions citrated control monkey plasma tested to give a reported result in percent normal.
Prothrombin Time (PT) and Activated Partial Thromboplastin Time (aPTT) were measured using platelet poor plasma (PPP) from monkeys treated with ISIS oligonucleotides. PT and aPTT values are provided in Tables 116 and 117 and are reported as International Normalized Ratio (INR) values. INR values for PT and aPTT were determined by dividing the PT or aPTT value for each experimental group by the PT or aPTT for the PBS treated group. This ratio was then raised to the power of the International Sensitivity Index (ISI) of the tissue factor used. The ISIS oligonucleotide, ISIS 416850, given with the chronic dose regimen is distinguished from the other oligonucleotides with an asterisk (*).

[2] = Tolerability in CD1 mice: kidney function, BUN (Example 41); conditions: 50 mg/kg s.c. twice per week for 6 weeks, plasma
[3] = mouse, in vivo
Protocol: A control group of five mice was injected subcutaneously with PBS for 2 weeks. All experimental groups (i.e. ASO treated mice at 2, 4, 6 weeks) were compared to the control group (i.e. PBS, 2 weeks).
Blood obtained from all mice groups were sent to Antech Diagnostics for hematocrit (HCT), mean corpuscular volume (MCV), mean corpuscular hemoglobin (MCH), and mean corpuscular hemoglobin concentration (MCHC) measurements and analyses, as well as measurements of the various blood cells, such as WBC (neutrophils, lymphocytes, and monocytes), RBC, and platelets, and total hemoglobin content.

[4] = day 8, chronic dose regimen (*)
[5] = day 15, chronic dose regimen (*)
[6] = day 15, escalating dose regimen
[7] = day 22, chronic dose regimen (*)
[8] = day 22, escalating dose regimen
[9] = day 29, chronic dose regimen (*)
[10] = day 29, escalating dose regimen
[11] = day 36, chronic dose regimen (*)
[12] = day 36, escalating dose regimen
[13] = day 43, chronic dose regimen (*)
[14] = day 43, escalating dose regimen
[15] = day 50, chronic dose regimen (*)
[16] = day 50, escalating dose regimen
[17] = day 57, escalating dose regimen
[18] = day 64, escalating dose regimen
[19] = day 71, escalating dose regimen
[20] = day 78, escalating dose regimen
[21] = day 85, escalating dose regimen
[22] = day −5, chronic dose regimen (*)
[23] = day −5, escalating dose regimen
[24] = day −14, chronic dose regimen (*)
[25] = day −14, escalating dose regimen

## ISIS 416850: MOE gapmer, nucleobases 1275 to 1318 of SEQ ID NO: 1 (Table 8) (antisense TGCACAGTTTCTGGCAGGCC; MOE gapmer, wing and gap sizes not given here)
fibrinogen; [4]
  fibrinogen levels: 232 mg/dL
fibrinogen; day 8, escalating dose regimen
  fibrinogen levels: 281 mg/dL
fibrinogen; [5]
  fibrinogen levels: 174 mg/dL
fibrinogen; [6]
  fibrinogen levels: 270 mg/dL
fibrinogen; [7]
  fibrinogen levels: 192 mg/dL
fibrinogen; [8]
  fibrinogen levels: 243 mg/dL
fibrinogen; [9]
  fibrinogen levels: 192 mg/dL
fibrinogen; [10]
  fibrinogen levels: 234 mg/dL
fibrinogen; [11]
  fibrinogen levels: 185 mg/dL
fibrinogen; [12]
  fibrinogen levels: 232 mg/dL
fibrinogen; [13]
  fibrinogen levels: 194 mg/dL
fibrinogen; [14]
  fibrinogen levels: 219 mg/dL
fibrinogen; [15]
  fibrinogen levels: 204 mg/dL
fibrinogen; [16]
  fibrinogen levels: 215 mg/dL
fibrinogen; [17]
  fibrinogen levels: 186 mg/dL
fibrinogen; [18]
  fibrinogen levels: 190 mg/dL
fibrinogen; [19]
  fibrinogen levels: 178 mg/dL
fibrinogen; [20]
  fibrinogen levels: 177 mg/dL
fibrinogen; [21]
  fibrinogen levels: 187 mg/dL
fibrinogen; [22]
  fibrinogen levels: 227 mg/dL
fibrinogen; [23]
  fibrinogen levels: 261 mg/dL
fibrinogen; [24]
  fibrinogen levels: 274 mg/dL
fibrinogen; [25]
  fibrinogen levels: 310 mg/dL
[1]
  body weight: 11 g
  Kidney weight: 1.5%
  Liver weight: 6%
  Spleen weight: 0.4%
Blood coagulation; [4]
  PT ratio (INR): 1.03
  aPTT ratio (INR): 1.12
Blood coagulation; day 8, escalating dose regimen
  PT ratio (INR): 1.00
  aPTT ratio (INR): 1.05
Blood coagulation; [5]
  PT ratio (INR): 1.06
  aPTT ratio (INR): 1.07
Blood coagulation; [6]
  PT ratio (INR): 1.02
  aPTT ratio (INR): 1.05
Blood coagulation; [7]
  PT ratio (INR): 1.06
  aPTT ratio (INR): 1.21
Blood coagulation; [8]
  PT ratio (INR): 1.02
  aPTT ratio (INR): 1.13
Blood coagulation; [9]
  PT ratio (INR): 1.00
  aPTT ratio (INR): 1.26
Blood coagulation; [10]
  PT ratio (INR): 1.03
  aPTT ratio (INR): 1.13
Blood coagulation; [11]
  PT ratio (INR): 1.06
  aPTT ratio (INR): 1.34
Blood coagulation; [12]
  PT ratio (INR): 1.02
  aPTT ratio (INR): 1.26
Blood coagulation; [13]
  PT ratio (INR): 1.02
  aPTT ratio (INR): 1.22
Blood coagulation; [14]
  PT ratio (INR): 1.01
  aPTT ratio (INR): 1.17
Blood coagulation; [15]
  PT ratio (INR): 0.98
  aPTT ratio (INR): 1.35
Blood coagulation; [16]
  PT ratio (INR): 1.02
  aPTT ratio (INR): 1.68
Blood coagulation; [17]
  PT ratio (INR): 1.04
  aPTT ratio (INR): 1.59
Blood coagulation; [18]
  PT ratio (INR): 1.03
  aPTT ratio (INR): 1.64
Blood coagulation; [19]
  PT ratio (INR): 1.03
  aPTT ratio (INR): 1.76
Blood coagulation; [20]
  PT ratio (INR): 1.05
  aPTT ratio (INR): 1.88
Blood coagulation; [21]
  PT ratio (INR): 1.04
  aPTT ratio (INR): 1.99
Blood coagulation; [22]
  PT ratio (INR): 1.00
  aPTT ratio (INR): 1.00
Blood coagulation; [23]
  PT ratio (INR): 1.00
  aPTT ratio (INR): 1.00
Blood coagulation; [24]
  PT ratio (INR): 1.00
  aPTT ratio (INR): 1.00
Blood coagulation; [25]
  PT ratio (INR): 1.00
  aPTT ratio (INR): 1.00
[2]
  BUN: 28 mg/dL

## ISIS 416858: MOE gapmer, nucleobases 1275 to 1318 of SEQ ID NO: 1 (Table 8) (antisense ACGGCATTGGTGCACAGTTT; MOE gapmer, wing and gap sizes not given here)
fibrinogen; day 8, escalating dose regimen
  fibrinogen levels: 246 mg/dL
fibrinogen; [6]
  fibrinogen levels: 219 mg/dL
fibrinogen; [8]
  fibrinogen levels: 222 mg/dL
fibrinogen; [10]
  fibrinogen levels: 220 mg/dL
fibrinogen; [12]
  fibrinogen levels: 225 mg/dL
fibrinogen; [14]
  fibrinogen levels: 229 mg/dL
fibrinogen; [16]
  fibrinogen levels: 259 mg/dL
fibrinogen; [17]
  fibrinogen levels: 225 mg/dL
fibrinogen; [18]
  fibrinogen levels: 236 mg/dL
fibrinogen; [19]
  fibrinogen levels: 239 mg/dL
fibrinogen; [20]
  fibrinogen levels: 234 mg/dL
fibrinogen; [21]
  fibrinogen levels: 243 mg/dL
fibrinogen; [23]
  fibrinogen levels: 246 mg/dL
fibrinogen; [25]
  fibrinogen levels: 277 mg/dL
Blood coagulation; day 8, escalating dose regimen
  PT ratio (INR): 1.05
  aPTT ratio (INR): 1.03
Blood coagulation; [6]
  PT ratio (INR): 1.07
  aPTT ratio (INR): 1.07
Blood coagulation; [8]
  PT ratio (INR): 1.06
  aPTT ratio (INR): 1.18
Blood coagulation; [10]
  PT ratio (INR): 1.08
  aPTT ratio (INR): 1.20
Blood coagulation; [12]
  PT ratio (INR): 1.07
  aPTT ratio (INR): 1.36
Blood coagulation; [14]
  PT ratio (INR): 1.08
  aPTT ratio (INR): 1.28
Blood coagulation; [16]
  PT ratio (INR): 1.03
  aPTT ratio (INR): 1.55
Blood coagulation; [17]
  PT ratio (INR): 1.09
  aPTT ratio (INR): 1.59
Blood coagulation; [18]
  PT ratio (INR): 1.09
  aPTT ratio (INR): 1.60
Blood coagulation; [19]
  PT ratio (INR): 1.07
  aPTT ratio (INR): 1.70
Blood coagulation; [20]
  PT ratio (INR): 1.10
  aPTT ratio (INR): 1.79
Blood coagulation; [21]
  PT ratio (INR): 1.07
  aPTT ratio (INR): 1.76
Blood coagulation; [23]
  PT ratio (INR): 1.00
  aPTT ratio (INR): 1.00
Blood coagulation; [25]
  PT ratio (INR): 1.00
  aPTT ratio (INR): 1.00
[3]
  RBC count: 9 cells/pL

## ISIS 416864: MOE gapmer, nucleobases 1275 to 1318 of SEQ ID NO: 1 (Table 8) (antisense GGCAGCGGACGGCATTGGTG; MOE gapmer, wing and gap sizes not given here)
fibrinogen; day 8, escalating dose regimen
  fibrinogen levels: 227 mg/dL
fibrinogen; [6]
  fibrinogen levels: 210 mg/dL
fibrinogen; [8]
  fibrinogen levels: 184 mg/dL
fibrinogen; [10]
  fibrinogen levels: 205 mg/dL
fibrinogen; [12]
  fibrinogen levels: 202 mg/dL
fibrinogen; [14]
  fibrinogen levels: 198 mg/dL
fibrinogen; [16]
  fibrinogen levels: 233 mg/dL
fibrinogen; [17]
  fibrinogen levels: 200 mg/dL
fibrinogen; [18]
  fibrinogen levels: 218 mg/dL
fibrinogen; [19]
  fibrinogen levels: 245 mg/dL
fibrinogen; [20]
  fibrinogen levels: 250 mg/dL
fibrinogen; [21]
  fibrinogen levels: 240 mg/dL
fibrinogen; [23]
  fibrinogen levels: 243 mg/dL
fibrinogen; [25]
  fibrinogen levels: 300 mg/dL
Blood coagulation; day 8, escalating dose regimen
  PT ratio (INR): 1.02
  aPTT ratio (INR): 1.05
Blood coagulation; [6]
  PT ratio (INR): 1.07
  aPTT ratio (INR): 1.03
Blood coagulation; [8]
  PT ratio (INR): 1.03
  aPTT ratio (INR): 1.11
Blood coagulation; [10]
  PT ratio (INR): 1.06
  aPTT ratio (INR): 1.13
Blood coagulation; [12]
  PT ratio (INR): 1.06
  aPTT ratio (INR): 1.19
Blood coagulation; [14]
  PT ratio (INR): 1.04
  aPTT ratio (INR): 1.07
Blood coagulation; [16]
  PT ratio (INR): 1.01
  aPTT ratio (INR): 1.26
Blood coagulation; [17]
  PT ratio (INR): 1.08
  aPTT ratio (INR): 1.19
Blood coagulation; [18]
  PT ratio (INR): 1.10
  aPTT ratio (INR): 1.12
Blood coagulation; [19]
  PT ratio (INR): 1.07
  aPTT ratio (INR): 1.18
Blood coagulation; [20]
  PT ratio (INR): 1.08
  aPTT ratio (INR): 1.18
Blood coagulation; [21]
  PT ratio (INR): 1.13
  aPTT ratio (INR): 1.25
Blood coagulation; [23]
  PT ratio (INR): 1.00
  aPTT ratio (INR): 1.00
Blood coagulation; [25]
  PT ratio (INR): 1.00
  aPTT ratio (INR): 1.00
[3]; sc, 50 mg/kg
  MCHC: 31%

## ISIS 445522: 5-8-5 or 6-8-6 MOE microwalk gapmer (Table 44) (antisense eG*e[5mC]*eA*e[5mC]*eA*dG*dT*dT*dT*d[5mC]*dT*dG*dG*e[5mC]*eA*eG*eG*e[5mC])
[1]
  body weight: 11 g
  Kidney weight: 1.7%
  Liver weight: 6%
  Spleen weight: 0.4%
[2]
  BUN: 28 mg/dL

## ISIS 445531: 5-8-5 or 6-8-6 MOE microwalk gapmer (Table 44) (antisense eG*eG*e[5mC]*eA*eT*dT*dG*dG*dT*dG*d[5mC]*dA*d[5mC]*eA*eG*eT*eT*eT)
[1]
  body weight: 10 g
  Kidney weight: 1.5%
  Liver weight: 6%
  Spleen weight: 0.5%
[2]
  BUN: 27 mg/dL
